Data published in article PMC4077696 (PLoS Biology, 2014).
Counter-ions that a name gives are not always drawn.

How the values were obtained:
PvPMV = PvPMV (Plasmodium vivax, UniProt A5K302); assay: PEXEL cleavage assay with immunopurified PvPMVHA and fluorogenic KAHRP PEXEL peptide; format: biochemical
Procedure: To investigate PvPMVHA activity, we affinity purified it, as well as the PfPMVHA control, using anti-HA agarose, as previously described [13],[18].
PMV-agarose was prepared by adding α-HA-agarose (Sapphire Bioscience) to parasite lysates, prepared by sonication in 1% Triton X-100/PBS, for 1 h before extensive washing in same [12],[13]. […] Samples were excited at 340 nm and fluorescence emission measured at 492 nm using an Envision fluorescence plate reader (Perkin-Elmer) heated to 37°C for 150 min. Samples were shaken between measurements.

PfPMV = PfPMV (Plasmodium falciparum, UniProt Q8I6Z5); assay: PEXEL cleavage assay with immunopurified PfPMVHA and fluorogenic KAHRP PEXEL peptide; format: biochemical
Procedure: To investigate PvPMVHA activity, we affinity purified it, as well as the PfPMVHA control, using anti-HA agarose, as previously described,[18]. […] The proteins were incubated with a fluorogenic peptide of nine amino acids that contained the PEXEL sequence from knob-associated histidine-rich protein (KAHRP), and efficient processing was observed by both enzymes (Figure 1E). Cleavage of KAHRP by PfPMVHA was previously shown to occur after Leu (RTL↓) by mass spectrometry, and this position was also confirmed for PvPMVHA (Figure S2B–E). […] In contrast, no processing was observed when the PEXEL Arg and Leu residues were mutated to Ala (ATAAQ), consistent with the substrate specificity of PfPMV (Figure 1E). To verify that processing was due to HA-tagged PMV rather than other co-precipitated proteases, we expressed in P. falciparum a mutant of PvPMVHA or PfPMVHA [13], where one or both catalytic Asp residues were mutated to Ala (see Figure 1A,B). Following affinity purification, the mutant enzymes were incubated with KAHRP PEXEL peptides, but no processing was observed (Figure 1E; blue, white), confirming that the PEXEL-dependent cleavage activity observed for each protease was attributable only to HA-tagged PMV.
Each compound was incubated with PfPMVHA in the presence of KAHRP PEXEL peptides.
PMV-agarose was prepared by adding α-HA-agarose (Sapphire Bioscience) to parasite lysates, prepared by sonication in 1% Triton X-100/PBS, for 1 h before extensive washing in same,[13]. PEXEL cleavage assays (20 µl total volume) consisted of 0.2 µl PMV-agarose in digest buffer (25 mM Tris, 25 mM MES, pH 6.4) with 1.5 µM FRET peptide substrate (DABCYL-[…]-E-EDANS, DABCYL-[…]-E-EDANS, LifeTein; DABCYL-[…]-E-EDANS, DABCYL-[…]-E-EDANS; Mimotopes) ± inhibitor. Samples were excited at 340 nm and fluorescence emission measured at 492 nm using an Envision fluorescence plate reader (Perkin-Elmer) heated to 37°C for 150 min. Samples were shaken between measurements. For determination of the peptide cleavage position by PvPMVHA, the fluorogenic peptide (DABCYL-[…]-E-EDANS), representing the wild-type KAHRP PEXEL sequence, was incubated with and without PvPMVHA at 37°C for 48 h. Products of the incubation were detected by a molecular formula algorithm using an Agilent 6200 TOF/6500 series mass spectrometer.

[1] = tested on: Hyp8-GFP export in P. falciparum–infected erythrocytes; assay: Quantification of Hyp8-GFP export and Maurer's clefts by immunofluorescence microscopy; format: cell-based, Plasmodium falciparum
Procedure: (§1) For quantification of events in cells infected with parasites expressing Hyp8-GFP, highly synchronous ring-stage parasites engineered to express Hyp8-GFP from the CRT promoter were obtained by incubation of erythrocytes with viable merozoites for 15 min [47] and treated with 20 or 50 µM 916 30 min postinvasion for 13 h (until Hyp8-GFP expression from the CRT promoter had occurred for 1 h). Smears were fixed in 90∶10 acetone∶methanol, labeled with anti-GFP and anti-EXP2 antibodies, and Z-stacks captured on a Deltavision Elite microscope using a 100× objective. Over 40 Z-stacks per condition were imaged using the same exposure settings to allow quantitative analysis between groups.
A parasite mask was generated by combining the signals from the maximum intensity projections of the nuclear (DAPI) and parasitophorous vacuole membrane (EXP2) images and setting a manual threshold. A whole infected erythrocyte mask was produced by manually tracing the cell boundary using the DIC image. Average GFP intensity measurements were determined on masked summed intensity projections of the GFP images using MetaMorph Image Analysis suite (Molecular Devices, USA). Ratios of the average intensity measurements of GFP inside the parasite (inside EXP2) versus exported to the erythrocyte (outside EXP2) were determined.
Clefts were counted using ImageJ's “Find Maxima” function to detect local maxima in the green signal within the masked cell region.

[2] = molecular target: T1, PMV in P. falciparum expressing PMVHA-glmS (Plasmodium falciparum, UniProt Q8I6Z5); assay: PEXEL processing of PfEMP3-GFP in PMVHA-glmS parasites with PMV knockdown, immunoblot; format: cell-based; details: 20 µM 916, 5 h
T1 construct: incorporated in frame at the 3′ of the PMV locus by homologous recombination; expressed in transfected cells; host or cells: P. falciparum NF54 with pPMVHA-glmS integrated at the PMV locus, also transfected with PfEMP3-GFP
Procedure: As 916 inhibited PMV in parasites (for example, by 13-fold, Figure 3G), the additive effect of PMV knockdown plus 916 treatment was investigated. Parasites expressing PMVHA-glmS were transfected with a construct encoding PfEMP3-GFP, and PEXEL processing was assessed by immunoblot.
Trophozoites (30–34 h) expressing PfEMP3-GFP, KAHRP-GFP, or SERA5s-GFP were magnet-purified (Miltenyi Biotech), incubated with inhibitors in 400 µl total volume at 37°C for 1–5 h, treated with 0.09% saponin containing inhibitor, and washed pellets were solubilized in Laemmli's buffer, boiled for 3 min, and frozen at −20°C. Proteins were separated by SDS-PAGE, transferred to nitrocellulose and blocked in 10% skim milk/PBS-T, and probed with rat α-HA (Roche 3F10; 1∶1,000), mouse α-GFP (Roche; 1∶1,000), rabbit α-Aldolase (1∶1,000), rabbit α-HSP70 (1∶4,000), rabbit α-PfPMV (1∶1,000), or rabbit α-Hyp8 (1∶500) primary antibodies followed by horseradish peroxidase-conjugated secondary antibodies (Silenius) and detected by enhanced chemiluminescence (Amersham).

[3] = tested on: EXP2 secretion in P. falciparum–infected erythrocytes; assay: EXP2 secretion to the parasitophorous vacuole membrane; format: cell-based, Plasmodium falciparum; details: 20 or 50 µM, 13 h
Procedure: as §1
The EXP2 signal was measured by masking the infected cell using a watershed transform on the summed and filtered red signal, seeded by the DAPI-positive parasite.

[4] = tested on: P. falciparum overexpressing PvPMVHA; assay: Dose-response growth assay of parasites overexpressing PvPMVHA; format: cell-based, Plasmodium falciparum
Procedure: We next investigated the possible effects of PMV overexpression on parasite sensitivity to 916. […] To control for the carriage of episomes and selection on WR99210, sensitivity to 916 was compared between parasites overexpressing a similar construct on episomes on WR99210 selection (encoding miniVarHA; see Figure 1F).
In the case of dose-response curves, medium was kept for the entire experiment; in the case of curves in Figure 4B,C, medium was replaced with inhibitor-free medium at 48 h postinfection. Parasitaemia was always determined at 72 h by flow cytometry. To knock down PMV, GlcN (Sigma) was added to trophozoites and drug curves initiated by adding compound at subsequent rings (24 h) for 24–72 h.

beta-secretase (BACE-1) = beta-secretase (BACE-1) (Homo sapiens, UniProt P56817); assay: Off-target activity against human aspartyl protease BACE-1; format: biochemical
Sequence of beta-secretase (BACE-1) (P56817 46-501): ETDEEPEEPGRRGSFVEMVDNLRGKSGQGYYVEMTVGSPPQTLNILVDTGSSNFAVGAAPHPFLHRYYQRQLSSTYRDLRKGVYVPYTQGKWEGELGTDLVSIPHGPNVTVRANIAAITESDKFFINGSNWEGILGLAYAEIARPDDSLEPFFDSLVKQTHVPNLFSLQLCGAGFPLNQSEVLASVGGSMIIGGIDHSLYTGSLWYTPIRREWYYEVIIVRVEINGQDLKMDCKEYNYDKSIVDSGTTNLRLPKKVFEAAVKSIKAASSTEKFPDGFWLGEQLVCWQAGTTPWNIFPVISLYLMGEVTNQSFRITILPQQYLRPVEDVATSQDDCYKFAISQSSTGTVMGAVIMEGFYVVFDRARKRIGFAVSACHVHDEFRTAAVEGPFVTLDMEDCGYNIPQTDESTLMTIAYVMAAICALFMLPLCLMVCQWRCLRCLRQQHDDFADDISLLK

Sequence of PfPMV (Q8I6Z5 34-590): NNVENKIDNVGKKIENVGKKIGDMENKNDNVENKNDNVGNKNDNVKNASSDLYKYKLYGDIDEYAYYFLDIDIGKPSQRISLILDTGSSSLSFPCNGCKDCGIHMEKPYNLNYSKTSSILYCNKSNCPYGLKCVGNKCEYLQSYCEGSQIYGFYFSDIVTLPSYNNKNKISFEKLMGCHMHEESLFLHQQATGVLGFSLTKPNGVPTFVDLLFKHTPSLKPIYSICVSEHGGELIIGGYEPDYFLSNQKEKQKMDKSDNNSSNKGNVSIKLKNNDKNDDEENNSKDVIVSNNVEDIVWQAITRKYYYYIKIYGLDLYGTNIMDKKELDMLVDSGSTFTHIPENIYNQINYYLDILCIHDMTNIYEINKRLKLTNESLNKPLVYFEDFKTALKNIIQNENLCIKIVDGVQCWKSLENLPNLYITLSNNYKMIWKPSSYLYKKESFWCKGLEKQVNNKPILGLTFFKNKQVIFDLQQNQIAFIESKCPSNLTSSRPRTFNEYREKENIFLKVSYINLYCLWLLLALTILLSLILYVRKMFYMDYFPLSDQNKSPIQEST
Sequence of PvPMV (A5K302 35-536): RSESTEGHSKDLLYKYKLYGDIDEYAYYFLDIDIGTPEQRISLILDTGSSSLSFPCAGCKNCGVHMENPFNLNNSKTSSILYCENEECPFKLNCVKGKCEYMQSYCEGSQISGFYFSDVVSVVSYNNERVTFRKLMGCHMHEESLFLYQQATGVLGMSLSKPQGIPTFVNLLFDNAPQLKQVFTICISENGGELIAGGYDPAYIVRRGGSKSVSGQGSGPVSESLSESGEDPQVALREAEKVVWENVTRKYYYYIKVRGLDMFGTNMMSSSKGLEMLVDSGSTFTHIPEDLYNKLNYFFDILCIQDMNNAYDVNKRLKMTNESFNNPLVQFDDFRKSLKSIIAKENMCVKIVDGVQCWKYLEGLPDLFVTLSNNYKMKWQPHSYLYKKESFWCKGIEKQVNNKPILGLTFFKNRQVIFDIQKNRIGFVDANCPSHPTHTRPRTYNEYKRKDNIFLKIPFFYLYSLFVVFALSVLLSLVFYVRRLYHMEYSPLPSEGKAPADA
T1 sequence (Q8I6Z5 whole entry): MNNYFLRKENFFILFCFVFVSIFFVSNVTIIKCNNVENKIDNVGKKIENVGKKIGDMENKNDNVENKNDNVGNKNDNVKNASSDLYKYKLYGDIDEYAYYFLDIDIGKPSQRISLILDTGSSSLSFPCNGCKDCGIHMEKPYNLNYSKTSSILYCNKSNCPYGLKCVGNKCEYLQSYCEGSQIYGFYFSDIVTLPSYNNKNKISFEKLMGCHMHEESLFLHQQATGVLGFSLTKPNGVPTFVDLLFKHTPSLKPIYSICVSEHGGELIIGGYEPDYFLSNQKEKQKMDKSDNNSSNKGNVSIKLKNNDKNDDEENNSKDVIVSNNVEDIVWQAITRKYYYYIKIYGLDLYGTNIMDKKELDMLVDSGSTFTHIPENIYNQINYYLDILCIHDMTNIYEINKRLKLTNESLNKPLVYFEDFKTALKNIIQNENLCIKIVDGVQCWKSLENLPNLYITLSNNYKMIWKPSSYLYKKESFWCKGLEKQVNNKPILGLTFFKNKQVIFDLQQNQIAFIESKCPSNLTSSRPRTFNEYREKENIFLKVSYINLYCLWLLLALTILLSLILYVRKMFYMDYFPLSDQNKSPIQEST

SMILES	Activity against PvPMVHA, in words (PvPMV)	IC50 (PvPMV)	IC50 (PfPMV; IC50 PfPMV, PfPMVHA)	Nonexported Hyp8-GFP signal inside EXP2, in words ([1]; 20 or 50 µM, 13 h)	Hyp8-GFP in Maurer's clefts (exported), in words ([1]; 20 or 50 µM, 13 h from 30 min postinvasion)	Reduction of mean number of GFP-positive Maurer's clefts ([1]; compared to DMSO)	Enhancement of PEXEL cleavage impairment following PMV knockdown [2]	IC50 (PfPMV; IC50 PfPMVHA, PEXEL cleavage)	EXP2 signal at the parasitophorous vacuole membrane, in words [3]	Increase in EC50 with PvPMVHA overexpression versus miniVarHA control ([4]; 5 nM WR99210 selection)	Increase in EC50 with PvPMVHA overexpression versus wild-type 3D7 ([4]; wild-type 3D7 without WR99210 selection)	IC50 (beta-secretase (BACE-1))
CC[C@H](C)[C@H](NC(=O)[C@@H](NC(=O)[C@H](CCCNC(=N)N)NS(=O)(=O)Cc1ccccc1)C(C)C)[C@@H](O)CC(=O)NCCc1ccccc1 [compound 025, PhCH2SO2Arg-Val-AHMHpA-NH(CH2)2Ph . TFA]	weak activity	1770 nM	1110 nM	–	–	–	–	–	–	–	–	–
CC(C)C[C@H](NC(=O)[C@@H](NC(=O)[C@H](CCCNC(=N)N)NS(=O)(=O)Cc1ccccc1)C(C)C)[C@@H](O)CC(=O)NCCc1ccccc1 [compound 916, PhCH2SO2-Arg(NH2)-Val-Sta-NH(CH2)2Ph .TFA]	–	–	–	small but significant increase in nonexported GFP signal	dose-dependent decrease of Hyp8-GFP in MCs	up to 39%	50%	20 nM	no statistical difference	1.9 fold	1.4 fold	> 100000 nM
